In ChEMBL document CHEMBL1201862, “PubChem BioAssay data set” (2004):
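Step 1: Grow cells in 96-well plates. Step 2: Expose to compound for 48 hours at 5 concentrations. Step 3: Interpolate endpoints linearly; if unreached, use highest concentration. GI50 is the concentration that inhibits growth by half.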 Activity calls are given as the source filed them. Rule as the data show it: active = GI50 up to about 1.1 µM and inactive = higher. Where a SMILES comes first, the peptide text is derived from it. [ ]: non-standard residue; d: D form. The star is where a group is joined. Bn2Val = CC(C)[C@@H](C(=O)*)N(Cc1ccccc1)Cc1ccccc1; NH(3,4-diMeO-benzyl) = COc1ccc(CN*)cc1OC; NMeV = CN[C@H](C(=O)O)C(C)C

Tests used:
Assay in all cases: DTP human tumour cell line panel, 48 h
[1] = system: 786-0
[2] = system: BT-549
[3] = system: CCRF-CEM
[4] = system: COLO 205
[5] = system: EKVX
[6] = system: HCT-116
[7] = system: HL-60
[8] = system: HOP-62
[9] = system: HOP-92
[10] = system: Hs-578T
[11] = system: MDA-MB-231
[12] = system: MDA-MB-435
[13] = system: NCI-H226
[14] = system: OVCAR-5
[15] = system: SK-MEL-2
[16] = system: SNB-19
[17] = system: T47D
[18] = system: UACC-62
[19] = system: RPMI-8226

Measured: GI50

COc1ccc(CNC(=O)[C@@H]2CCCN2C(=O)[C@@H]2CCCN2C(=O)[C@H](C(C)C)N(C)C(=O)[C@@H](NC(=O)[C@H](C(C)C)N(Cc2ccccc2)Cc2ccccc2)C(C)C)cc1OC (Bn2Val-V[NMeV]PP-{NH(3,4-diMeO-benzyl)})
inactive: [1] 10.4 µM | [2] 14.7 µM | [3] 4.23 µM | [4] 9.71 µM | [5] 13.4 µM | [6] 14.4 µM | [7] 3.15 µM | [8] 15.6 µM | [9] 14.9 µM | [10] 51.3 µM | [11] 17.5 µM | [12] 12 µM | [13] 17.3 µM | [14] 18.5 µM | [15] 13.4 µM | [16] 15.9 µM | [17] 12.6 µM | [18] 14.5 µM

Cn1c2ccccc2c(=O)c2cccc(C(=O)NC(CCCNC(=N)N)C(=O)O)c21 (stereo not given)
inactive: [1] > 100 µM | [2] > 100 µM | [4] > 100 µM | [5] > 100 µM | [6] > 100 µM | [8] > 100 µM | [10] > 100 µM | [11] > 100 µM | [12] > 100 µM | [13] > 100 µM | [14] > 100 µM | [19] > 100 µM | [15] > 100 µM | [16] > 100 µM | [17] > 100 µM | [18] > 100 µM

COc1ccc(NC(=S)Nc2cc(C)cc(C)n2)cc1
inactive: [1] > 100 µM | [2] > 100 µM | [3] > 100 µM | [4] > 100 µM | [5] > 100 µM | [6] > 100 µM | [7] > 100 µM | [8] > 100 µM | [10] > 100 µM | [11] > 100 µM | [12] > 100 µM | [13] > 100 µM | [14] > 100 µM | [19] > 100 µM | [15] > 100 µM | [16] > 100 µM | [17] > 100 µM | [18] > 100 µM

C=C(CO)[C@H]1CC/C(C)=C/CC/C(C)=C/C/C=C(\C)[C@H](O)C1
inactive: [1] 17.3 µM | [2] 23.1 µM | [3] > 100 µM | [4] 22.3 µM | [5] 33.2 µM | [6] 26.9 µM | [8] > 100 µM | [9] 19.8 µM | [10] 25.5 µM | [11] 21.6 µM | [12] 18.6 µM | [13] 30.5 µM | [14] 47.1 µM | [19] 20 µM | [15] 22.8 µM | [16] 47.4 µM | [17] 48 µM | [18] 23 µM

CCNC1=C(NC(=O)c2ccc(F)cc2)C(=O)c2ccccc2C1=O
inactive: [1] > 100 µM | [2] > 100 µM | [3] 35.8 µM | [4] 26.7 µM | [5] > 100 µM | [6] 30.3 µM | [7] 40.3 µM | [8] > 100 µM | [9] > 100 µM | [10] > 100 µM | [11] 44.8 µM | [12] 18.2 µM | [13] > 100 µM | [14] > 100 µM | [19] > 100 µM | [16] > 100 µM | [17] 47.1 µM | [18] 15.1 µM

CC1CCCc2c(C#N)c(N)nc(-c3ccc(Cl)cc3)c21 (stereo not given)
inactive: [1] 15.1 µM | [2] 17.9 µM | [3] 22.8 µM | [4] 18.8 µM | [5] 14.7 µM | [6] 20.7 µM | [7] 18.1 µM | [8] 5.73 µM | [10] 32.4 µM | [11] 22.1 µM | [12] 23.8 µM | [13] 14.5 µM | [14] 15.6 µM | [19] 11.1 µM | [15] 15.6 µM | [16] 39.4 µM | [17] 5.96 µM | [18] 15.8 µM

COC(=O)C(C(=O)C(=O)Nc1ccccc1C#N)c1nc2ccc([N+](=O)[O-])cc2nc1O (stereo not given)
inactive: [1] > 100 µM | [2] > 100 µM | [3] 94 µM | [4] > 100 µM | [5] 78 µM | [6] > 100 µM | [8] > 100 µM | [9] > 100 µM | [10] > 100 µM | [11] > 100 µM | [12] > 100 µM | [13] > 100 µM | [14] > 100 µM | [15] > 100 µM | [16] > 100 µM | [17] > 100 µM | [18] > 100 µM

S=c1nc(Nc2ccccc2)c2c3c(sc2[nH]1)CCCC3
inactive: [1] > 100 µM | [2] > 100 µM | [4] > 100 µM | [5] 2.32 µM | [6] > 100 µM | [7] > 100 µM | [8] > 100 µM | [10] > 100 µM | [11] > 100 µM | [12] > 100 µM | [13] > 100 µM | [14] > 100 µM | [19] > 100 µM | [15] > 100 µM | [16] > 100 µM | [17] > 100 µM | [18] > 100 µM

C[C@@]1(O)C2C3CC4C5C3C1[C@](O)(C42)[C@H]5Br (stereo not given in full)
inactive: [1] > 100 µM | [2] > 100 µM | [3] > 100 µM | [4] > 100 µM | [5] > 100 µM | [6] > 100 µM | [7] > 100 µM | [8] > 100 µM | [9] > 100 µM | [10] > 100 µM | [11] > 100 µM | [12] > 100 µM | [14] > 100 µM | [15] > 100 µM | [16] > 100 µM | [17] > 100 µM | [18] > 100 µM

O=C(O)C(Br)C(Br)c1ccccc1[N+](=O)[O-] (stereo not given)
inactive: [1] > 100 µM | [2] > 100 µM | [4] > 100 µM | [5] > 100 µM | [6] > 100 µM | [8] 96.2 µM | [9] > 100 µM | [10] > 100 µM | [11] > 100 µM | [12] > 100 µM | [13] > 100 µM | [14] > 100 µM | [19] > 100 µM | [15] > 100 µM | [16] > 100 µM | [17] > 100 µM | [18] > 100 µM

COC(=O)C1=Nc2c(C)nn(-c3ccccc3)c2N=C(c2ccc(C)cc2)C1
inactive: [1] > 10 µM | [2] > 10 µM | [4] > 10 µM | [6] > 10 µM | [7] > 10 µM | [8] > 10 µM | [9] > 10 µM | [10] > 10 µM | [11] > 10 µM | [12] > 10 µM | [19] > 10 µM | [16] > 10 µM | [17] > 10 µM | [18] > 10 µM

O=C1C(Cl)C(c2cccc(Cl)c2)N1c1ccc(-n2c(S)nc3ccccc3c2=O)cc1 (stereo not given)
inactive: [1] 19 µM | [2] 39.4 µM | [3] 23 µM | [4] 24.5 µM | [5] 32.1 µM | [6] 24.4 µM | [7] 22.1 µM | [8] 23.9 µM | [9] 19.9 µM | [10] 20.2 µM | [11] 20 µM | [12] 15.7 µM | [13] 25.4 µM | [14] 24.9 µM | [19] 17.9 µM | [16] 2.47 µM | [17] 31.8 µM | [18] 14.8 µM

OCCN(C1=NCCN1)/[N+](=C\c1ccccn1)[CH-]c1ccccn1
inactive: [1] > 100 µM | [2] > 100 µM | [3] > 100 µM | [4] > 100 µM | [5] > 100 µM | [6] > 100 µM | [7] > 100 µM | [8] > 100 µM | [10] > 100 µM | [11] > 100 µM | [12] > 100 µM | [13] > 100 µM | [14] > 100 µM | [19] 12.1 µM | [17] > 100 µM | [18] > 100 µM

CC1CNc2ccccc2N=C1NN (stereo not given)
inactive: [1] > 100 µM | [2] > 100 µM | [3] 22.7 µM | [4] > 100 µM | [5] > 100 µM | [6] > 100 µM | [8] > 100 µM | [10] > 100 µM | [11] > 100 µM | [12] > 100 µM | [13] > 100 µM | [14] > 100 µM | [19] > 36.5 µM | [15] > 100 µM | [16] > 100 µM | [17] > 100 µM | [18] > 100 µM

CC(C)(C)OC(=O)C1CCC/C1=N/Nc1ccc([N+](=O)[O-])cc1[N+](=O)[O-] (stereo not given)
inactive: [1] 23 µM | [2] 24.9 µM | [3] 19.7 µM | [4] 27 µM | [5] 24.7 µM | [6] 21.4 µM | [7] 44.3 µM | [8] 45.6 µM | [9] 47.1 µM | [10] 48.2 µM | [11] 20 µM | [12] 21.2 µM | [13] 21.3 µM | [14] 43.3 µM | [19] 32 µM | [16] 41.5 µM | [17] 16.3 µM | [18] 26.9 µM

N#Cc1ccc(-c2nc3c(N)ncnc3o2)cc1
inactive: [1] 63.8 µM | [2] > 100 µM | [3] > 100 µM | [4] > 100 µM | [5] > 100 µM | [6] > 100 µM | [7] > 100 µM | [8] 84.7 µM | [10] > 100 µM | [11] > 100 µM | [12] > 100 µM | [13] > 100 µM | [14] > 100 µM | [19] > 100 µM | [15] > 100 µM | [16] > 100 µM | [17] > 100 µM | [18] > 100 µM
